Data set [1] in a line: Stability in presence of alpha-chymotrypsin at 100 mM after 12 hrs. Type of data set: ADME. Conditions: 100000 µM; call rule not given here.
Data set [2] in a line: Stability in phosphate buffer assessed as hydrolysis at pH 7.4 after 3 days. Type of data set: physicochemical. The note with it: read-out: Activity.
Data set [3] is described as follows: Stability assessed as hydrolysis half life in presence of alpha-chymotrypsin. The data set is classed as ADME.

The source of these data is ChEMBL document CHEMBL1138392, “Phenylalanyl-aminocyclophosphamides as model prodrugs for proteolytic activation: synthesis, stability, and stereochemical requirements for enzymatic cleavage” (Bioorg Med Chem Lett, 2007).

For the compound `N[C@@H](Cc1ccccc1)C(=O)N[C@H]1CCOP(=O)(N(CCCl)CCCl)N1` (some centres undefined), in data set [1], the Activity entry is given as “Not Active”. In addition, the degraded at 72 h in data set [2] was less than 10%.
Regarding `O=C(N[C@@H](Cc1ccccc1)C(=O)N[C@H]1CCOP(=O)(N(CCCl)CCCl)N1)OCc1ccccc1` (stereo in doubt; trans), in data set [3], the t1/2 came out at 8.9 h.
As for `N[C@@H](Cc1ccccc1)C(=O)N[C@@H]1CCOP(=O)(N(CCCl)CCCl)N1` (some centres undefined), the Activity result in data set [1] is listed as “Not Active”. For the same compound, the degraded at 72 h in data set [2] is less than 10%.
With `O=C(N[C@@H](Cc1ccccc1)C(=O)N[C@H]1CCOP(=O)(N(CCCl)CCCl)N1)OCc1ccccc1` (stereo in doubt; cis), in data set [3], the t1/2 is 0.333 h. In addition, the result in data set [1] was Active.
What is called half-life is how long it takes for the measured level to halve. For `O=C(N[C@@H](Cc1ccccc1)C(=O)N[C@@H]1CCOP(=O)(N(CCCl)CCCl)N1)OCc1ccccc1` (some centres undefined), the half-life in data set [3] (alpha-chymotrypsin) is greater than 12 h. For the same compound, the outcome in data set [1] was Active.
